In PubChem BioAssay AID248 (DTP/NCI, 2004):
Several values for one entry are separate records, joined by “and”; a condition that tells them apart may be missing. Equal entries are not always repeated. Toxic doses and inconclusive results are not listed. No stated cut-off is given here; in the data, active means T/C of 150% or more; inactive means T/C below 125%.

System: L1210 leukemia ip in BDF1 mice, survival T/C
Test: NCI In Vivo Anticancer Drug Screen. Data for tumor model L1210 Leukemia (intraperitoneal) in B6D2F1 (BDF1) mice
Settings: endpoint: mean survival time, higher = longer survival
Method in brief: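 Read-out is survival time, reported as the treated-group measurement over the vehicle-control measurement.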

[1] = dose: 50.0 mg/kg/injection, schedule: Q04DX002 (ip), vehicle: Klucel (hydroxypropylcellulose) (HPC)
[2] = dose: 100.0 mg/kg/injection, schedule: Q04DX002 (ip), vehicle: Klucel (hydroxypropylcellulose) (HPC)
[3] = dose: 100.0 mg/kg/injection, schedule: Q04DX003 (ip), vehicle: saline with Tween-80
[4] = dose: 200.0 mg/kg/injection, schedule: Q04DX003 (ip), vehicle: saline with Tween-80
[5] = dose: 400.0 mg/kg/injection, schedule: Q04DX003 (ip), vehicle: saline with Tween-80
[6] = dose: 50.0 mg/kg/injection, schedule: Q01DX001 (ip), vehicle: saline
[7] = dose: 100.0 mg/kg/injection, schedule: Q01DX001 (ip), vehicle: saline
[8] = dose: 200.0 mg/kg/injection, schedule: Q01DX001 (ip), vehicle: saline
[9] = dose: 400.0 mg/kg/injection, schedule: Q01DX001 (ip), vehicle: saline
[10] = dose: 100.0 mg/kg/injection, schedule: Q01DX001 (ip), vehicle: carboxymethylcellulose (CMC)
[11] = dose: 200.0 mg/kg/injection, schedule: Q01DX001 (ip), vehicle: carboxymethylcellulose (CMC)
[12] = dose: 400.0 mg/kg/injection, schedule: Q01DX001 (ip), vehicle: carboxymethylcellulose (CMC)
[13] = dose: 75.0 mg/kg/injection, schedule: Q01DX001 (ip), vehicle: saline
[14] = dose: 100.0 mg/kg/injection, schedule: Q04DX003 (ip), vehicle: Klucel (hydroxypropylcellulose) (HPC)
[15] = dose: 200.0 mg/kg/injection, schedule: Q04DX002 (ip), vehicle: Klucel (hydroxypropylcellulose) (HPC)

Measured: T/C

CC(=O)OCC1OCOC2C1OC1OCOC12 (stereo not given)
inactive: dose: 100.0 mg/kg/injection, schedule: Q04DX002 (ip), vehicle: saline with Tween-80 104 % of control | dose: 200.0 mg/kg/injection, schedule: Q04DX002 (ip), vehicle: saline with Tween-80 104 % of control | dose: 400.0 mg/kg/injection, schedule: Q04DX002 (ip), vehicle: saline with Tween-80 118 % of control

O=S1(=O)CC2(N3CCCC3)C3c4ccccc4C(c4ccccc43)C21 (stereo not given)
inactive: dose: 25.0 mg/kg/injection, schedule: Q04DX002 (ip), vehicle: Klucel (hydroxypropylcellulose) (HPC) 102 % of control | [1] 102 % of control | [2] 117 % of control

COC(=O)C1=C(C)NC(=O)NC1c1ccc(OC)cc1 (stereo not given)
inactive: [3] 103 % of control | [4] 90 % of control | [5] 90 % of control

O=C(CCCC(=O)N/N=C/c1cc(Br)ccc1O)N/N=C\c1cc(Br)ccc1O
inactive: [6] 93 % of control | [7] 98 % of control | dose: 100.0 mg/kg/injection, schedule: Q01DX009 (ip), vehicle: saline 89 % of control | [8] 98 % of control | [9] 96 % of control | dose: 400.0 mg/kg/injection, schedule: Q01DX009 (ip), vehicle: saline 92 % of control

COc1cc2cc3c4cc(OC)c(OC)cc4cc[n+]3c(/C=C/c3cccc(O)c3)c2cc1OC
inactive: dose: 25.0 mg/kg/injection, schedule: Q04DX002 (ip), vehicle: carboxymethylcellulose (CMC) 97 % of control and 108 % of control | dose: 50.0 mg/kg/injection, schedule: Q04DX002 (ip), vehicle: carboxymethylcellulose (CMC) 101 % of control | [10] 102 % of control and 110 % of control | [11] 110 % of control and 119 % of control | [12] 98 % of control and 114 % of control | dose: 400.0 mg/kg/injection, schedule: Q04DX002 (ip), vehicle: carboxymethylcellulose (CMC) 105 % of control and 115 % of control

Oc1cccc(/C=N/Nc2nnc(N/N=C/c3cccc(O)c3)c3ccccc23)c1
inactive: dose: 50.0 mg/kg/injection, schedule: Q01DX001 (ip), vehicle: carboxymethylcellulose (CMC) 108 % of control | [10] 101 % of control | [11] 98 % of control | [12] 96 % of control

O=C1Cc2ccccc2C(=O)N1Nc1ccccc1
inactive: dose: 22.0 mg/kg/injection, schedule: Q01DX001 (ip), vehicle: saline 96 % of control | dose: 33.0 mg/kg/injection, schedule: Q01DX001 (ip), vehicle: saline 91 % of control | [6] 93 % of control and 101 % of control | [13] 95 % of control | [7] 101 % of control | [8] 95 % of control | [9] 95 % of control

CCCCCCc1cc2ccccc2cc1CCCC
inactive: [7] 102 % of control | [8] 100 % of control | [9] 97 % of control

CCOC(=O)c1cnc(SC)nc1N(C)c1ccccc1
inactive: dose: 44.0 mg/kg/injection, schedule: Q04DX003 (ip), vehicle: Klucel (hydroxypropylcellulose) (HPC) 98 % of control | dose: 66.0 mg/kg/injection, schedule: Q04DX003 (ip), vehicle: Klucel (hydroxypropylcellulose) (HPC) 99 % of control | dose: 67.0 mg/kg/injection, schedule: Q04DX003 (ip), vehicle: Klucel (hydroxypropylcellulose) (HPC) 95 % of control | [14] 98 % of control and 101 % of control | dose: 150.0 mg/kg/injection, schedule: Q04DX003 (ip), vehicle: Klucel (hydroxypropylcellulose) (HPC) 95 % of control and 97 % of control

Cc1ccc(S/N=C\c2ccccc2O)cc1
inactive: [1] 93 % of control | [2] 100 % of control | [15] 107 % of control and 91 % of control | dose: 400.0 mg/kg/injection, schedule: Q04DX002 (ip), vehicle: Klucel (hydroxypropylcellulose) (HPC) 91 % of control

COC(=O)NS(=O)(=O)/C=C\n1c2ccccc2c2ccccc21
inactive: dose: 75.0 mg/kg/injection, schedule: Q01DX009 (ip), vehicle: Klucel (hydroxypropylcellulose) (HPC) 98 % of control | dose: 150.0 mg/kg/injection, schedule: Q01DX009 (ip), vehicle: Klucel (hydroxypropylcellulose) (HPC) 109 % of control

c1ccc(C2(N3CCC4(CC3)OCCO4)CCCCC2)cc1
inactive: [2] 102 % of control | [15] 105 % of control

COc1ccc(C(=O)C(C)CN2CCCCC2)cc1 (stereo not given)
inactive: [7] 96 % of control | [8] 107 % of control

O=C(O)/C=C\c1c[nH]c2ccccc12 (tested in a mixture with another compound)
inactive: [13] 104 % of control | dose: 150.0 mg/kg/injection, schedule: Q01DX001 (ip), vehicle: saline 105 % of control | dose: 300.0 mg/kg/injection, schedule: Q01DX001 (ip), vehicle: saline 110 % of control

O=Cc1c(Cl)n(C(=O)c2ccccc2Cl)c2ccccc12
inactive: [2] 97 % of control | [15] 86 % of control

CC(C)=CCC/C(C)=C\CC1=C(O)c2ccccc2C(=O)C1=O
inactive: dose: 100.0 mg/kg/injection, schedule: Q01DX001 (ip), vehicle: water 96 % of control | dose: 100.0 mg/kg/injection, schedule: Q04DX003 (ip), vehicle: acetone 102 % of control | dose: 200.0 mg/kg/injection, schedule: Q01DX001 (ip), vehicle: water 100 % of control | dose: 200.0 mg/kg/injection, schedule: Q04DX003 (ip), vehicle: acetone 94 % of control

C=C(Br)CNC(=O)OCC
inactive: dose: 50.0 mg/kg/injection, schedule: Q04DX003 (ip), vehicle: saline 96 % of control | dose: 100.0 mg/kg/injection, schedule: Q04DX003 (ip), vehicle: saline 115 % of control | dose: 200.0 mg/kg/injection, schedule: Q04DX003 (ip), vehicle: saline 107 % of control

CCCCC(=O)N/N=C/c1ccccc1C(=O)O
inactive: [7] 96 % of control | [8] 107 % of control | [9] 91 % of control

O=C(Nc1ccccc1)Nn1cnc2ccccc2c1=O
inactive: [3] 89 % of control | [4] 90 % of control | [5] 88 % of control

CCOC(=O)Nc1cccc2ccccc12
inactive: [14] 101 % of control | dose: 200.0 mg/kg/injection, schedule: Q04DX003 (ip), vehicle: Klucel (hydroxypropylcellulose) (HPC) 97 % of control | dose: 400.0 mg/kg/injection, schedule: Q04DX003 (ip), vehicle: Klucel (hydroxypropylcellulose) (HPC) 98 % of control

CCCCNC(=O)Nc1cccc(C(F)(F)F)c1
inactive: dose: 50.0 mg/kg/injection, schedule: Q01DX001 (sc), vehicle: carboxymethylcellulose (CMC) 106 % of control | dose: 100.0 mg/kg/injection, schedule: Q01DX001 (sc), vehicle: carboxymethylcellulose (CMC) 104 % of control | dose: 200.0 mg/kg/injection, schedule: Q01DX001 (sc), vehicle: carboxymethylcellulose (CMC) 104 % of control | dose: 400.0 mg/kg/injection, schedule: Q01DX001 (sc), vehicle: carboxymethylcellulose (CMC) 101 % of control

CC1CCC=C2C(=O)C3OC3C(C(C)(C)O)C21C (stereo not given)
inactive: dose: 100.0 mg/kg/injection, schedule: Q01DX009 (ip), vehicle: acetone 98 % of control | [3] 90 % of control | dose: 200.0 mg/kg/injection, schedule: Q01DX009 (ip), vehicle: acetone 96 % of control | dose: 400.0 mg/kg/injection, schedule: Q01DX009 (ip), vehicle: acetone 100 % of control | [5] 93 % of control

CCCCC(=O)OCC(=O)[C@]1(O)Cc2c(O)c3c(c(O)c2[C@@H](OC2CC(NC(=O)C(F)(F)F)C(O)C(C)O2)C1)C(=O)c1c(OC)cccc1C3=O (stereo not given in full)
active: dose: 30.0 mg/kg/injection, schedule: Q01DX004 (ip), vehicle: saline with Tween-80 166 % of control | dose: 40.0 mg/kg/injection, schedule: Q01DX004 (ip), vehicle: other 164 % of control and 375 % of control | dose: 50.0 mg/kg/injection, schedule: Q01DX004 (ip), vehicle: other 372 % of control and 470 % of control | dose: 60.0 mg/kg/injection, schedule: Q01DX004 (ip), vehicle: other 177 % of control and 441 % of control
inactive: dose: 7.5 mg/kg/injection, schedule: Q01DX004 (ip), vehicle: saline with Tween-80 108 % of control and 112 % of control | dose: 10.0 mg/kg/injection, schedule: Q01DX004 (ip), vehicle: saline with Tween-80 117 % of control and 119 % of control and 120 % of control

CN=C(N)c1ccc(N=C(N)c2ccc(N=C(N)c3ccc(N=C(O)c4cccc(C(O)=Nc5ccc(C(N)=Nc6ccc(C(N)=Nc7ccc(C(N)=NC)cc7)cc6)cc5)c4)cc3)cc2)cc1
active: dose: 13.0 mg/kg/injection, schedule: Q01DX015 (ip), vehicle: water 186 % of control

COC(=O)c1ccccc1NC(=O)c1cccc(F)c1
inactive: dose: 100.0 mg/kg/injection, schedule: Q01DX009 (ip), vehicle: Klucel (hydroxypropylcellulose) (HPC) 95 % of control | dose: 200.0 mg/kg/injection, schedule: Q01DX009 (ip), vehicle: Klucel (hydroxypropylcellulose) (HPC) 105 % of control | dose: 400.0 mg/kg/injection, schedule: Q01DX009 (ip), vehicle: Klucel (hydroxypropylcellulose) (HPC) 103 % of control
